From BindingDB's records for PubMed 11408545 (Glaxosmithkline, 2001)
Values joined by “and” are separate entries in the source; they are usually repeats but may differ in a detail not shown here. Equal entries are not always repeated.

How the values were obtained:
[1] = biological target: T1, Alpha-2A adrenergic receptor [16-465] (Rattus norvegicus, UniProt P22909)
T1 construct: 16-465
T1 sequence (P22909 whole entry): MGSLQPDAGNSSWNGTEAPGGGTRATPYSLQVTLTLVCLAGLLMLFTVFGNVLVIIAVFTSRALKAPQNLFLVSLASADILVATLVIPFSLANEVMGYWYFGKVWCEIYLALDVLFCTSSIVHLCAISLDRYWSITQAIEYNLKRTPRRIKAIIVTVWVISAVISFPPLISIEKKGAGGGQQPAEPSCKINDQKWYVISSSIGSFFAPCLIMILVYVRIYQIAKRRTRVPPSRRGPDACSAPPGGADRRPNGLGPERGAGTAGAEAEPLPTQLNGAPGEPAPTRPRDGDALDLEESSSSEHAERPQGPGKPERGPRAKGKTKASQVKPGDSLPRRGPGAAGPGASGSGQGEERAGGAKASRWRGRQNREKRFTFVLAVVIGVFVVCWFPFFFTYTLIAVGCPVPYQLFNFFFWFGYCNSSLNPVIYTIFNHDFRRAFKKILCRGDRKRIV

[2] = biological target: T2, Alpha-2B adrenergic receptor (Oryctolagus cuniculus, UniProt O77830)
T2 sequence (O77830 whole entry): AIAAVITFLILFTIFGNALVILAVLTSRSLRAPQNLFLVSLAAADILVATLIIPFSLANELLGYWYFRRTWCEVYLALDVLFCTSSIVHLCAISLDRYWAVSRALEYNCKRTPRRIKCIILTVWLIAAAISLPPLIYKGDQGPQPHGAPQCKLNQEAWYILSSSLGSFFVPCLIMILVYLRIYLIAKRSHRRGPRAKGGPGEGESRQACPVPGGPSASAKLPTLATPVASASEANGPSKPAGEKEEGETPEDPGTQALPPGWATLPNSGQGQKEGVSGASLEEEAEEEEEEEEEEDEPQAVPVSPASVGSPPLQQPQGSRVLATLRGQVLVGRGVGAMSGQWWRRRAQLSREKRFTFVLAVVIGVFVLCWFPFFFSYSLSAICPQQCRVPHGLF

[3] = biological target: T3, Alpha-2A adrenergic receptor (Homo sapiens, UniProt P08913)
T3 sequence (P08913 whole entry): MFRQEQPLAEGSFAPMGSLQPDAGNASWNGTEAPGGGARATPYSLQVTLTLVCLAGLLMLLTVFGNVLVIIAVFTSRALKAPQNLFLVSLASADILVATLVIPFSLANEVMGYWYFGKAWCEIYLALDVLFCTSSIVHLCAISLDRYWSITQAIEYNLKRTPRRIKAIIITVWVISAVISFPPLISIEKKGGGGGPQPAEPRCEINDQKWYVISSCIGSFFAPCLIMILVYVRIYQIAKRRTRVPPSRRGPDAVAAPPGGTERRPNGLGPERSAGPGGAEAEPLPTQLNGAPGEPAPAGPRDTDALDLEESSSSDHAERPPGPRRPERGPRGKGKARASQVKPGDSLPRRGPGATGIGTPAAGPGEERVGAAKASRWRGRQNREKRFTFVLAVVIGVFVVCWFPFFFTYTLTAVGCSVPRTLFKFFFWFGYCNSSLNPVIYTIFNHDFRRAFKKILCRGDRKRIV

Ki [1] [nM] | Ki [2] | SMILES | Ki [3] [nM]
0.95 | 7.3 nM and 6.4 nM | COC1(C2=NCCN2)COc2ccccc2O1 (stereo not given) [RX821002] | –
– | 24.1 nM and 18.4 nM | Cc1ccc(N(CC2=NCCN2)c2cccc(O)c2)cc1 [SMR000059054] | –
– | > 10000 nM | COc1cc2nc(N3CCN(C(=O)c4ccco4)CC3)nc(N)c2cc1OC [[3H]-Minipress] | –
– | 6.3 nM and 4.5 nM | Cc1cc(C(C)(C)C)c(O)c(C)c1CC1=NCCN1 [SMR000059324] | –
– | 284 nM and 57 nM | NCC(O)c1ccc(O)c(O)c1 (stereo not drawn) [Noradrenaline,(+)] | –
1470 | 376 nM and 429 nM | COC(=O)C1=COC(C)C2CN3CCc4c([nH]c5ccccc45)C3CC12 (stereo not given) [Ajmalicine] | 47.6
– | 2690 nM and 3130 nM | CN(C)CCCN1c2ccccc2Sc2ccc(Cl)cc21 [[3-(2-Chloro-phenothiazin-10-yl)-propyl]-dimethyl-amine(Chlorpromazine)] | –
484 | > 10000 nM | COc1ccccc1N1CCN(CCC2C(=O)c3ccccc3C(C)(C)C2=O)CC1 (stereo not given) [NSC_122211] | 373
142 | 5.3 nM and 11.8 nM | COc1cccc(OC)c1OCCNCC1Oc2ccccc2OC1c1ccccc1 (stereo not given) [NSC_185453] | 3.5

SMILES | Ki [1] [nM] | Ki [2] | Ki [3] [nM]
CC(C)=CCOc1ccc(Cl)c2c1CCN(C)CC2 [SK&F-104078] | 244 | 292 nM and 191 nM | 30.4
CN1C[C@H](Cn2ccnc2-c2ccccc2)C[C@@H]2c3cccc4[nH]c(Br)c(c34)C[C@H]21 [BAM-1303] | 313 | 95.3 nM and 46 nM | 18.1
O=C1NCN(c2ccccc2)C12CCN(CC1COc3ccccc3O1)CC2 (stereo not given) [8-(2,3-Dihydro-benzo[1,4]dioxin-2-ylmethyl)-1-phenyl-1,3,8-triaza-spiro[4.5]decan-4-one] | 92 | 169 nM and 129 nM | 28.3
